Results: patent US4189484A, “Antihypertensive quinazoline derivatives” (priority 1977, dated 1980)

Tests used:
Adrenergic α-receptor = Adrenergic α-receptor blocking effect (inhibition of hypertensive action of i.v. adrenalin hydrochloride); type: in vivo, Wistar strain male rats; conditions: relative to prazosin
Protocol: Wistar strain male rats, weighing 250-300 g., were used in this experiment. The rat was anesthetized with pentobarbital sodium and fitted in the right femoral artery with a cannula for determination of blood pressure and in the left femoral vein with another cannula for intravenous injection, the former cannula being connected to an electronic recording system to measure a blood pressure.
Adrenergic α-receptor blocking effect was determined upon whether a hypertensive action with intravenous injection of adrenalin hydrochloride at 0.3 or 1 μg./kg. may be reserved by pretreatment with the test compound.

[1] = test system: spontaneously hypertensive rats (SHR); assay: Antihypertensive effect, oral administration to spontaneously hypertensive rats (mean blood pressure and heart rate); type: in vivo, rat; conditions: for Change in blood pressure after 3 hrs. from administration: Table 1; for Changes in blood pressure (BP) after oral administration / Changes in heart rate (HR) after oral administration: Table 2, male SHR, n=5, p.o.; for Changes in average blood pressures after administration: Table 3
Protocol: Antihypertensive effect was determined by oral administration of the test compound to spontaneously hypertensive rats (hereinafter referred to as SHR).
These SHR were anesthetized with ether and chronically embedded with a cannula for determination of blood pressure so that one end of the said cannula may be placed in abdominal aorta and the other end thereof may be projected out of dorsal neck. When rats regained their body weight before operation in more than 1 week from operation, the test compound was given. Determination was made by measuring a mean blood pressure and a heart rate under unanesthetized and unrestrained conditions with the cannula connected to an electronic recording system. The test compound was suspended in a 1% tragacanth gum solution to make up a concentration so as to be a volume of 5 ml./kg. and then orally given.

ICR strain male mice = assay: in vivo; type: in vivo; conditions: for No. of deceased animal: 8 animals per group, 1 week
Protocol: (§1) ICR strain male mice, weighing 30-35 g., were deprived of food for 6 hours (water ad libitum) and then used in the experiment. Each group consisted of 8 animals. The test compound was suspended in a 1% tragacanth gum solution so as to be a volume of 40 ml./kg. and orally given. After administration, numbers of deceased animals, changes in body weight and other general states were observed or determined over 1 week.
(§2) Survived mice were autopsyed.

in vivo = type: in vivo; conditions: mouse, in vivo, po; mice
Protocol: as §1, §2

COc1ccc(C=CC(=O)N2CCN(c3nc(N)c4cc(OC)c(OC)cc4n3)CC2)cc1 [Compound No. 8, 2-[4-(4-Methoxycinnamoyl)-piperazin-1-yl]-4-amino-6,7-dimethoxyquinazoline]
α-receptor blocking action as compared with the action of prazosin (Adrenergic α-receptor): 1/100
Change in blood pressure after 3 hrs. from administration ([1]; SHR, p.o., 10 mg./kg., 3 hrs.): -25 mmHg

CCOc1ccc(C=CC(=O)N2CCN(c3nc(N)c4cc(OC)c(OC)cc4n3)CC2)cc1 [Compound No. 10, 2-[4-(4-Ethoxycinnamoyl)-piperazine-1-yl]-4-amino-6,7-dimethoxyquinazoline]
α-receptor blocking action as compared with the action of prazosin (Adrenergic α-receptor): 1/100
Change in blood pressure after 3 hrs. from administration ([1]; SHR, p.o., 1 mg./kg., 3 hrs.): -19 mmHg
Change in blood pressure after 3 hrs. from administration ([1]; SHR, p.o., 10 mg./kg., 3 hrs.): -53 mmHg

COc1cc2nc(N3CCN(C(=O)C=Cc4ccc5c(c4)OCO5)CC3)nc(N)c2cc1OC [Compound No. 16, 2-[4-(3,4-Methylenedioxycinnamoyl)-piperazin-1-yl]-4-amino-6,7-dimethoxyquinazoline]
α-receptor blocking action as compared with the action of prazosin (Adrenergic α-receptor): 1/100
Change in blood pressure after 3 hrs. from administration ([1]; SHR, p.o., 10 mg./kg., 3 hrs.): -13 mmHg

COc1cc2nc(N3CCN(C(=O)c4ccco4)CC3)nc(N)c2cc1OC [Prazosin, reference compound]
No. of deceased animal (ICR strain male mice; p.o., 1,250 mg./kg.): 0
No. of deceased animal (ICR strain male mice; p.o., 2,500 mg./kg.): 0
No. of deceased animal (ICR strain male mice; p.o., 5,000 mg./kg.): 0
time of maximum antihypertensive effect from oral administration ([1]; SHR, p.o.): 1 h
antihypertensive effect, compound compared with prazosin ([1]; SHR, p.o., in words): approximately equal antihypertensive effect to that of the present quinazoline compound after 3 hours
Changes in blood pressure (BP) after oral administration ([1]; 0.3 mg./kg., 1 hr.): -34±5.6 mm.Hg.
Changes in heart rate (HR) after oral administration ([1]; 0.3 mg./kg., 1 hr.): 6.3±3.3 no/min.
Changes in blood pressure (BP) after oral administration ([1]; 0.3 mg./kg., 3 hrs.): -25±3.5 mm.Hg.
Changes in heart rate (HR) after oral administration ([1]; 0.3 mg./kg., 3 hrs.): 5.3±4.6 no/min.
Changes in blood pressure (BP) after oral administration ([1]; 0.3 mg./kg., 6 hrs.): -27±4.4 mm.Hg.
Changes in heart rate (HR) after oral administration ([1]; 0.3 mg./kg., 6 hrs.): 3.2±3.0 no/min.
Changes in blood pressure (BP) after oral administration ([1]; 0.3 mg./kg., 24 hrs.): -1±4.3 mm.Hg.
Changes in heart rate (HR) after oral administration ([1]; 0.3 mg./kg., 24 hrs.): 4.3±4.9 no/min.
Changes in blood pressure (BP) after oral administration ([1]; 1 mg./kg., 1 hr.): -46±2.9 mm.Hg.
Changes in heart rate (HR) after oral administration ([1]; 1 mg./kg., 1 hr.): 7.0±4.4 no/min.
Changes in heart rate (HR) after oral administration ([1]; 1 mg./kg., 3 hrs.): 1.5±2.8 no/min.
Changes in blood pressure (BP) after oral administration ([1]; 1 mg./kg., 6 hrs.): -31±2.9 mm.Hg.
Changes in heart rate (HR) after oral administration ([1]; 1 mg./kg., 6 hrs.): -9.8±6.1 no/min.
Changes in blood pressure (BP) after oral administration ([1]; 1 mg./kg., 24 hrs.): -6±1.9 mm.Hg.
Changes in heart rate (HR) after oral administration ([1]; 1 mg./kg., 24 hrs.): -3.9±2.8 no/min.
Changes in blood pressure (BP) after oral administration ([1]; 3 mg./kg., 1 hr.): -50±6.5 mm.Hg.
Changes in heart rate (HR) after oral administration ([1]; 3 mg./kg., 1 hr.): 12.7±7.8 no/min.
Changes in blood pressure (BP) after oral administration ([1]; 3 mg./kg., 3 hrs.): -31±5.8 mm.Hg.
Changes in heart rate (HR) after oral administration ([1]; 3 mg./kg., 3 hrs.): 17.8±7.7 no/min.
Changes in blood pressure (BP) after oral administration ([1]; 3 mg./kg., 6 hrs.): -34±6.2 mm.Hg.
Changes in heart rate (HR) after oral administration ([1]; 3 mg./kg., 6 hrs.): 9.4±8.3 no/min.
Changes in blood pressure (BP) after oral administration ([1]; 3 mg./kg., 24 hrs.): -3± 5.8 mm.Hg.
Changes in heart rate (HR) after oral administration ([1]; 3 mg./kg., 24 hrs.): 26.8±8.3 no/min.
Changes in average blood pressures after administration ([1]; SHR, p.o., 1 mg./kg., 1 hr.): -46 mmHg
Changes in average blood pressures after administration ([1]; SHR, p.o., 1 mg./kg., 3 hrs.): -37 mmHg
Changes in average blood pressures after administration ([1]; SHR, p.o., 1 mg./kg., 6 hrs.): -31 mmHg
Changes in average blood pressures after administration ([1]; SHR, p.o., 1 mg./kg., 24 hrs.): -6 mmHg
Changes in average blood pressures after administration ([1]; SHR, p.o., 3 mg./kg., 1 hr.): -50 mmHg
Changes in average blood pressures after administration ([1]; SHR, p.o., 3 mg./kg., 3 hrs.): -31 mmHg
Changes in average blood pressures after administration ([1]; SHR, p.o., 3 mg./kg., 6 hrs.): -34 mmHg
Changes in average blood pressures after administration ([1]; SHR, p.o., 3 mg./kg., 24 hrs.): -3 mmHg

COc1cc2nc(N3CCN(C(=O)C=Cc4ccco4)CC3)nc(N)c2cc1OC [compound 28, 2-{4-[3-(Furan-2-yl)-acryloyl]-piperazin-1-yl}-4-amino-6,7-dimethoxyquinazoline]
Body weight gain after 7 days (ICR strain male mice; p.o., 1,250 mg./kg.): +2.6 g.
No. of deceased animal (ICR strain male mice; p.o., 1,250 mg./kg.): 0
Body weight gain after 7 days (ICR strain male mice; p.o., 2,500 mg./kg.): +3.0 g.
No. of deceased animal (ICR strain male mice; p.o., 2,500 mg./kg.): 0
Body weight gain after 7 days (ICR strain male mice; p.o., 5,000 mg./kg.): +0.2 g.
No. of deceased animal (ICR strain male mice; p.o., 5,000 mg./kg.): 0
LD50 at 168 h (in vivo): > 5000 mg/kg
Changes in average blood pressures after administration ([1]; SHR, p.o., 1 mg./kg., 1 hr.): -51 mmHg
Changes in average blood pressures after administration ([1]; SHR, p.o., 1 mg./kg., 3 hrs.): -31 mmHg
Changes in average blood pressures after administration ([1]; SHR, p.o., 1 mg./kg., 6 hrs.): -38 mmHg
Changes in average blood pressures after administration ([1]; SHR, p.o., 1 mg./kg., 24 hrs.): -11 mmHg
Changes in average blood pressures after administration ([1]; SHR, p.o., 3 mg./kg., 1 hr.): -74 mmHg
Changes in average blood pressures after administration ([1]; SHR, p.o., 3 mg./kg., 3 hrs.): -38 mmHg
Changes in average blood pressures after administration ([1]; SHR, p.o., 3 mg./kg., 6 hrs.): -43 mmHg
Changes in average blood pressures after administration ([1]; SHR, p.o., 3 mg./kg., 24 hrs.): -15 mmHg

COc1cc2nc(N3CCN(C(=O)C=Cc4ccncc4)CC3)nc(N)c2cc1OC [compound 45, 2-{4-[3-(Pyridin-4-yl)-acryloyl]-piperazin-1-yl}-4-amino-6,7-dimethoxyquinazoline]
Changes in average blood pressures after administration ([1]; SHR, p.o., 3 mg./kg., 1 hr.): -9 mmHg
Changes in average blood pressures after administration ([1]; SHR, p.o., 3 mg./kg., 3 hrs.): -5 mmHg
Changes in average blood pressures after administration ([1]; SHR, p.o., 3 mg./kg., 6 hrs.): -12 mmHg
Changes in average blood pressures after administration ([1]; SHR, p.o., 3 mg./kg., 24 hrs.): 0 mmHg

COc1cc2nc(N3CCCN(C(=O)C=Cc4ccco4)CC3)nc(N)c2cc1OC [compound 46, 2-{4-[3-(Furan-2-yl)-acryloyl]-homopiperazin-1-yl}-4-amino-6,7-dimethoxyquinazoline]
Changes in average blood pressures after administration ([1]; SHR, p.o., 3 mg./kg., 1 hr.): -20 mmHg
Changes in average blood pressures after administration ([1]; SHR, p.o., 3 mg./kg., 3 hrs.): -10 mmHg
Changes in average blood pressures after administration ([1]; SHR, p.o., 3 mg./kg., 6 hrs.): -12 mmHg
Changes in average blood pressures after administration ([1]; SHR, p.o., 3 mg./kg., 24 hrs.): -8 mmHg

COc1cc2nc(N3CCCN(C(=O)C=Cc4cccs4)CC3)nc(N)c2cc1OC [compound 47, 2-{4-[3-(Thiophen-2-yl)-acryloyl]-homopiperazin-1-yl}-4-amino-6,7-dimethoxyquinazoline]
Changes in average blood pressures after administration ([1]; SHR, p.o., 3 mg./kg., 1 hr.): -22 mmHg
Changes in average blood pressures after administration ([1]; SHR, p.o., 3 mg./kg., 3 hrs.): -13 mmHg
Changes in average blood pressures after administration ([1]; SHR, p.o., 3 mg./kg., 6 hrs.): -17 mmHg
Changes in average blood pressures after administration ([1]; SHR, p.o., 3 mg./kg., 24 hrs.): 2 mmHg

COc1cc2nc(N3CCCN(C(=O)C=Cc4cccnc4)CC3)nc(N)c2cc1OC [compound 48, 2-{4-[3-(Pyridin-3-yl)-acryloyl]-homopiperazin-1-yl}-4-amino-6,7-dimethoxyquinazoline]
Changes in average blood pressures after administration ([1]; SHR, p.o., 3 mg./kg., 1 hr.): -9 mmHg
Changes in average blood pressures after administration ([1]; SHR, p.o., 3 mg./kg., 3 hrs.): 0 mmHg
Changes in average blood pressures after administration ([1]; SHR, p.o., 3 mg./kg., 6 hrs.): 0 mmHg
Changes in average blood pressures after administration ([1]; SHR, p.o., 3 mg./kg., 24 hrs.): 2 mmHg
